Laboratory results taken from article PMC7993140 (Medicinal chemistry research : an international journal for …, 2020).

Assays:
[1] = target: T1, TDP2 (14M_zTDP2) (Danio rerio, UniProt Q5XJA0); experiment: 14M_zTDP2 fluorescence-based biochemical assay; settings: for TDP2 inhibition at 50 μM: at concentrations up to 50 μM; for IC50: read-out: IC50 (TDP2 inhibition), in-house fluorescence-based biochemical assay, 25 °C, 60 min
T1 sequence (Q5XJA0 121-369): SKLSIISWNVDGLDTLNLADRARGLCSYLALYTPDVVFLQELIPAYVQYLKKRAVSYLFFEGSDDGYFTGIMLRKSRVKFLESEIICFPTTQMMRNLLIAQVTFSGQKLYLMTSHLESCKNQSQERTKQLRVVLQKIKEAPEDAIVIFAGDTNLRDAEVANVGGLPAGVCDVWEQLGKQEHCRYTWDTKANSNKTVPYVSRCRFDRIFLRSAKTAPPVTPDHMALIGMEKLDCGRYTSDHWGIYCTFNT

[2] = system: TDP2; settings: read-out: previously reported IC50; previously reported value; cited from earlier work

In the case of `O=C1NC(=O)c2ccccc2/C1=C/NCc1ccc(O)cc1` [11b, (Z)-4-(((4-hydroxybenzyl)amino)methylene)isoquinoline-1,3(2H,4H)-dione], the “TDP2 inhibition at 50 μM” value [1] is reported as “no inhibition”.

For `O=C1NC(=O)c2ccccc2C1=Cc1ccncc1` [12c, 4-(pyridin-4-ylmethylene)isoquinoline-1,3(2H,4H)-dione], the “TDP2 inhibition” value ([1]; no concentration stated at the place) was “reasonable potency”.

In the case of `O=C1NC(=O)c2ccccc2C1=Cc1ccc[nH]1` [12d, 4-((1H-pyrrol-2-yl)methylene)isoquinoline-1,3(2H,4H)-dione], the “TDP2 inhibition at 50 μM” value [1] is reported as “no activity”.

For `Cn1cccc1C=C1C(=O)NC(=O)c2ccccc21` [12e, 4-((1-methyl-1H-pyrrol-2-yl)methylene)isoquinoline-1,3(2H,4H)-dione], the “TDP2 inhibition at 50 μM” value [1] was “no activity”.

With `O=C1NC(=O)c2ccccc2C1=Cc1cccs1` [12f, 4-(thiophen-2-ylmethylene)isoquinoline-1,3(2H,4H)-dione] the “TDP2 inhibition at 50 μM” value [1] was “no activity”.

With `O=C1NC(=O)c2ccccc2C1=Cc1ccsc1` [12g, 4-(thiophen-3-ylmethylene)isoquinoline-1,3(2H,4H)-dione] the “TDP2 inhibition at 50 μM” value [1] was “no activity”.

Compound `O=C1NC(=O)c2ccccc2C1=Cc1ccc2[nH]ncc2c1` [12h, 4-((1H-indazol-5-yl)methylene)isoquinoline-1,3(2H,4H)-dione] has an IC50 [1] of 19 µM.

In the case of `O=C1NC(=O)c2ccccc2C1=Cc1ccc2[nH]ccc2c1` [12i, 4-((1H-indol-5-yl)methylene)isoquinoline-1,3(2H,4H)-dione], the IC50 [1] is reported as 13 µM.

`O=C1NC(=O)c2ccccc2C1=Cc1ccc(O)cc1` [12k, 4-(4-hydroxybenzylidene)isoquinoline-1,3(2H,4H)-dione] showed an IC50 [1] of 10 µM.

Compound `O=C1NC(=O)c2ccccc2C1=Cc1ccc(C(=O)O)cc1` [12q, 4-((1,3-dioxo-2,3-dihydroisoquinolin-4(1H)-ylidene)methyl)benzoic acid] has an IC50 [1] of 4.8 µM.

For `O=C1Cc2ccccc2C(=O)N1` [compound 8, isoquinoline-1,3-dione, reference compound], the IC50 [1] is given as 22 µM and the IC50 [2] is given as 25 µM.
